In patent US20240309003A1, “HETEROCYCLIC COMPOUNDS AS TRIGGERING RECEPTOR EXPRESSED ON MYELOID CELLS 2 AGONISTS AND METHODS OF USE” (Vigil Neuroscience, Inc., priority 2021, published 2024):

Target: T1, human TREM2 (Homo sapiens, UniProt Q9NZC2)
T1 construct: expressed in transfected cells; host or cells: HEK293T
Test: TREM2 agonist potency by cellular phosphorylation of Syk (AlphaLisa) in HEK293T-hTREM2 cells
Format: cell-based
Conditions: HEK293 cells expressing human TREM2 and DAP12, Table D
Method: In Vitro Measurement of Triggering Receptor Expressed on Myeloid Cells 2 Activity Using Cellular Phosphorylation of Spleen Tyrosine Kinase (“Syk”) Assays
Measurement of TREM2 agonist potency was done using a HEK cell line expressing human TREM2 and DAP12 (HEK293T-hTREM2 cells). Binding of small molecules to, and activation of, TREM2 increases the phosphorylation of Syk. The resultant levels of Syk phosphorylation are measured using a commercial AlphaLisa reagent kit. To perform the assay, HEK-hTREM2 cells were plated at 14,000 cells per well in a 384 well plate, in 25 μL of complete growth media and incubated at 37° C., 5% CO2 for 20-24 hours.
Prior to the assay, test compounds were diluted in the 384 well plates in assay buffer and allowed to equilibrate for 30 minutes. Growth media was removed from cell plates by inversion on blotting paper, and 25 μL of test articles in assay buffer was added to cells. Cells were incubated for 45 minutes at room temperature. After 45 minutes, assay buffer was removed and 10 μL of lysis buffer was added. Plates were shaken for 20 minutes at 350 RPM at room temperature. After complete lysis, AlphaLisa reagents were added to the lysate, and fluourescence intensity was measured using a Perkin Elmer Envision plate reader. Intensities were used to generate a standard curve, and % activation was calculated. Curve fitting was performed using Prism v9 software, log(agonist) vs response-variable slope (four parameters), and EC50s were calculated from the curve fit.
This assay may be used to test any of the compounds described herein to assess and characterize a compound's ability to act as an agonist of TREM2.

T1 sequence (Q9NZC2 19-230): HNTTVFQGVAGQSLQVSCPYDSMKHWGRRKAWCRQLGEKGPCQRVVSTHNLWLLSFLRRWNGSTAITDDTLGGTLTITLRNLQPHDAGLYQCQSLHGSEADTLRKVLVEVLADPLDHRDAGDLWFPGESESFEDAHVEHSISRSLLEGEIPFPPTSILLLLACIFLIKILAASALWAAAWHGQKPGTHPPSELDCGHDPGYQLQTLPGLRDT
T1 sequence (O43914 22-113 partner): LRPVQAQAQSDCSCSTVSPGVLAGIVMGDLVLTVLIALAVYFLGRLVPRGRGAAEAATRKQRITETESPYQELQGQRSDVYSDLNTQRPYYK

SMILES | EC50 [nM]
Cc1nc2cc([C@H]3CCO[C@@H](c4cnn(C5CC5)c4)C3)cc(-c3ccc(Cl)cc3F)c2nc1C [Example 228, 5-(4-chloro-2-fluorophenyl)-7-((2R,4S)-2-(1-cyclopropyl-1H-pyrazol-4-yl)tetrahydro-2H-pyran-4-yl)-2,3-dimethylquinoxaline] | 50 to 500
COc1ncccc1[C@@H]1C[C@H](c2nc(-c3ccc(F)cc3F)c3nc(C)c(C)nc3n2)CCO1 [Example 160, 4-(2,4-difluorophenyl)-2-((2S,4R)-2-(2-methoxypyridin-3-yl)tetrahydro-2H-pyran-4-yl)-6,7-dimethylpteridine] | 50 to 500
Cc1nc2nc([C@@H]3CCO[C@H](c4cnn(C5CCC5)c4)C3)nc(-c3ccc(F)cc3F)c2nc1C [Example 147, 2-((2S,4R)-2-(1-cyclobutyl-1H-pyrazol-4-yl)tetrahydro-2H-pyran-4-yl)-4-(2,4-difluorophenyl)-6,7-dimethylpteridine] | 50 to 500
Cc1nc2cc([C@H]3CCO[C@@H](c4cnn(C5CC5)c4)C3)cc(-c3ccc(F)cc3Cl)c2nc1C [Example 229, 5-(2-chloro-4-fluorophenyl)-7-((2R,4S)-2-(1-cyclopropyl-1H-pyrazol-4-yl)tetrahydro-2H-pyran-4-yl)-2,3-dimethylquinoxaline] | 50 to 500
[2H]C([2H])([2H])c1ccc(-c2nc([C@H]3CCO[C@@H](c4cnn(C([2H])([2H])[2H])c4)C3)nc3nc(C([2H])([2H])[2H])c(C([2H])([2H])[2H])nc23)cc1 [Example 175, 6,7-bis(methyl-d3)-2-((2R,4S)-2-(1-(methyl-d3)-1H-pyrazol-4-yl)tetrahydro-2H-pyran-4-yl)-4-(4-(methyl-d3)phenyl)pteridine] | 50 to 500
Cc1cc([C@H]2C[C@@H](c3cc(-c4ccc(Cl)c(F)c4F)c4cc(C)c(C)nc4n3)CCO2)ccn1 [Example 186, 5-(4-chloro-2,3-difluorophenyl)-2,3-dimethyl-7-((2R,4S)-2-(2-methylpyridin-4-yl)tetrahydro-2H-pyran-4-yl)-1,8-naphthyridine] | 500 to 3000
Cc1nc2nc([C@@H]3CCO[C@H](c4ccc(=O)n(C)c4)C3)nc(-c3ccc(F)cc3F)c2nc1C [Example 200] | < 50
Cc1nc2nc([C@H]3CCO[C@@H](c4cnn(C5CC5)c4)C3)nc(C34CC(C(C)C)(C3)C4)c2nc1C [Example 127, 2-((2R,4S)-2-(1-cyclopropyl-1H-pyrazol-4-yl)tetrahydro-2H-pyran-4-yl)-4-(3-isopropylbicyclo[1.1.1]pentan-1-yl)-6,7-dimethylpteridine] | < 50
Cc1nc2nc([C@@H]3CCO[C@H](c4cnn(CCF)c4)C3)nc(-c3ccc(F)cc3F)c2nc1C [Example 149, 4-(2,4-difluorophenyl)-2-((2S,4R)-2-(1-(2-fluoroethyl)-1H-pyrazol-4-yl)tetrahydro-2H-pyran-4-yl)-6,7-dimethylpteridine] | 500 to 3000
Cc1nc2nc(-c3ccc(Cl)cc3F)cc([C@@H]3CCO[C@@H](c4cnn(C5CC5)c4)C3)c2nc1C [Example 236, 6-(4-chloro-2-fluorophenyl)-8-((2R,4R)-2-(1-cyclopropyl-1H-pyrazol-4-yl)tetrahydro-2H-pyran-4-yl)-2,3-dimethylpyrido[2,3-b]pyrazine] | 50 to 500
Cc1ccc2c(-c3cc(F)c(Cl)cc3F)nc([C@H]3CCO[C@@H](c4cnn(C5CC5)c4)C3)nc2n1 [Example 219, 4-(4-chloro-2,5-difluorophenyl)-2-((2R,4S)-2-(1-cyclopropyl-1H-pyrazol-4-yl)tetrahydro-2H-pyran-4-yl)-7-methylpyrido[2,3-d]pyrimidine] | < 50
COc1ncccc1[C@@H]1C[C@H](c2nc(C34CC(C(F)(F)F)(C3)C4)c3nc(C)c(C)nc3n2)CCO1 [Example 143, 2-((2S,4R)-2-(2-methoxypyridin-3-yl)tetrahydro-2H-pyran-4-yl)-6,7-dimethyl-4-(3-(trifluoromethyl)bicyclo[1.1.1]pentan-1-yl)pteridine] | 500 to 3000

Same assay, conditions: HEK293 cells expressing human TREM2 and DAP12, Table D-2

SMILES | EC50 [nM]
COCn1cc([C@H]2CN(c3nc(-c4ccc(Cl)cc4F)c4nc(C)c(C)nc4n3)C[C@@H](C)O2)cn1 [Example I-1446, (2S,6R)-4-[4-(4-chloro-2-fluoro-phenyl)-6,7-dimethyl-pteridin-2-yl]-2-[1-(methoxymethyl)pyrazol-4-yl]-6-methyl-morpholine] | < 50
Cc1nc2cc([C@H]3CCO[C@@H](c4cnn(C5CC5)c4)C3)nc(-c3ccc(F)cc3F)c2nc1CC#N [Example I-1451, 2-(7-((2R,4S)-2-(1-cyclopropyl-1H-pyrazol-4-yl)tetrahydro-2H-pyran-4-yl)-5-(2,4-difluorophenyl)-2-methylpyrido[3,4-b]pyrazin-3-yl)acetonitrile] | 500 to 3000
Cc1nc2nc(N3C[C@@H](C)O[C@@H](c4cnn(C)c4)C3)nc(-c3ccc(F)cc3F)c2nc1C [Example I-1633] | < 50
Cc1nc2nc([C@H]3CCO[C@@H](c4cnn(C5CC5)c4)C3)nc(-c3c(F)cc(C(F)(F)F)cc3F)c2nc1C (stereo in doubt) [Example I-1391, 4-[2,6-difluoro-4-(trifluoromethyl)phenyl]-6,7-dimethyl-2-[(2R,4S)-2-(1-cyclopropylpyrazol-4-yl)tetrahydropyran-4-yl]pteridine] | < 50
Cc1nc2nc(N3C[C@@H](c4cnn(C5CC5)c4)O[C@@H](C(F)F)C3)nc(-c3ccc(F)cc3F)c2nc1C (single isomer, unassigned) [Example I-1524] | < 50
[2H]C([2H])([2H])c1nc2nc(N3C[C@@H](C)O[C@@H](c4cnn(C5CC5)c4)C3)nc(-c3ccc(F)cc3F)c2nc1C([2H])([2H])[2H] [Example I-1129, (2S,6R)-2-(1-cyclopropylpyrazol-4-yl)-4-[4-(2,4-difluorophenyl)-6,7-bis(trideuteriomethyl)pteridin-2-yl]-6-methyl-morpholine] | < 50
Cc1nc2nc(N3CCOC(c4cnn5c4CCC5)C3)nc(-c3ccc(F)cc3F)c2nc1C (stereo in doubt) [Example I-1532, (2S)-4-[4-(2,4-difluorophenyl)-6,7-dimethyl-pteridin-2-yl]-2-(5,6-dihydro-4H-pyrrolo[1,2-b]pyrazol-3-yl)morpholine] | 50 to 500
Cc1nc2nc([C@@H]3CCO[C@@H](c4cnc(C5CC5)o4)C3)nc(-c3ccc(F)cc3F)c2nc1C (single isomer, unassigned) [Example I-1696] | 500 to 3000
Cc1nc2nc(N3C[C@@H](C)O[C@@H](c4cnn(C5CC5)c4)C3)nc(-c3cc(C(F)F)c(F)cc3F)c2nc1C (stereo in doubt) [Example I-1706, (2S,6R)-2-(1-cyclopropylpyrazol-4-yl)-4-[4-[5-(difluoromethyl)-2,4-difluoro-phenyl]-6,7-dimethyl-pteridin-2-yl]-6-methyl-morpholine] | < 50
Cc1nc2nc(N3CCO[C@H](c4cnn5c4CCC5)C3)nc(-c3ccc(F)cc3F)c2nc1C [Example I-1529, (2R)-4-[4-(2,4-difluorophenyl)-6,7-dimethyl-pteridin-2-yl]-2-(5,6-dihydro-4H-pyrrolo[1,2-b]pyrazol-3-yl)morpholine] | 50 to 500
COc1nc2c(-c3ccc(Cl)cc3F)nc([C@@H]3CCO[C@H](c4cnn(C5CC5)c4)C3)nc2nc1C (racemic) [Example I-1221, 4-(4-chloro-2-fluoro-phenyl) −6-methoxy-7-methyl-2-[rac-(2S,4R)-2-(1-cyclopropylpyrazol-4-yl)tetrahydropyran-4-yl]pteridine] | < 50
Cc1nc2nc(N3C[C@@H](C)O[C@@H](c4cnn(C5CC5)c4)C3)nc([C@H]3C[C@H](OC(F)(F)F)C3)c2nc1C [Example I-1729, (2S,6R)-2-(1-cyclopropylpyrazol-4-yl)-4-[6,7-dimethyl-4-[3-(trifluoromethoxy)cyclobutyl]pteridin-2-yl]-6-methyl-morpholine] | < 50
Cc1nc2nc(N3C[C@@H](C)O[C@@H](c4ccn(C5CC5)n4)C3)nc(-c3ccc(F)cc3F)c2nc1C [Example I-1265, (2R,6R)-2-(1-cyclopropylpyrazol-3-yl)-4-[4-(2,4-difluorophenyl)-6,7-dimethyl-pteridin-2-yl]-6-methyl-morpholine] | 50 to 500
Cc1nc2nc(N3C[C@@H](C(F)F)O[C@@H](c4cnn(C5CC5)c4)C3)nc(-c3ccc(F)cc3F)c2nc1C (single isomer, unassigned) [Example I-1467] | < 50
Cc1nc2nc(N3C[C@@H](C)O[C@@H](c4cnn(C5CC5)c4)C3)nc(-c3ccc4c(c3F)CCC4(F)F)c2nc1C [Example I-1485, (2S,6R)-2-(1-cyclopropylpyrazol-4-yl)-4-[6,7-dimethyl-4-(1,1,4-trifluoroindan-5-yl)pteridin-2-yl]-6-methyl-morpholine] | < 50
CCCc1nc2c(-c3ccc(F)cc3F)nc(N3C[C@@H](C)O[C@@H](c4cnn(C5CC5)c4)C3)nc2nc1C [Example I-1293] | < 50
Cc1nc2nc(N3C[C@@H](C4CC4)O[C@@H](c4cnn(C5CC5)c4)C3)nc(-c3ccc(F)cc3F)c2nc1C [Example I-1381] | < 50
